Where “and” joins values, the source holds several entries; their conditions need not be identical. Equal entries are not always repeated.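 Values below derive from 48-hour exposures of cells grown in 96-well plates, with endpoints linearly interpolated between the two concentrations bracketing the appropriate inhibition level. The concentration for 50% growth inhibition is given as GI50. TGI: total growth inhibition.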
System: HCT-15 colon
Test: NCI anticancer screen, dose series, 48 h

Compared with `O=[N+]([O-])/C=C/c1ccc(Cl)cc1[N+](=O)[O-]`, `O=CN1N=C(c2cccc(Nc3ccnc4cc(Cl)ccc34)c2)CC1c1ccc(Cl)cc1` (stereo not drawn) is 2.4-fold lower in GI50: 2.2 µM for the first, 0.903 µM for the second.

Compared with `COc1cc2c3c(n(CCCNCCCNCCCN)c(=O)c2cc1OC)-c1cc2c(cc1C3=O)OCO2`, `CC(=O)Oc1cc2cnc3c4cc(OC(C)=O)c(OC(C)=O)cc4ccc3c2cc1OC(C)=O` is 69-fold lower in GI50: 73.6 µM for the first, 1.06 µM for the second.

`C=C1C[C@@H]2O[C@H]3[C@H]4[C@@H](CC[C@@](C)(OC(=O)CCC)[C@H]42)[C@@H](C)C(=O)O[C@@]3(C)CC[C@H]1OO` was tested, and the GI50 was 16.2 µM.

First: O=[N+]([O-])/C=C/c1ccc(Cl)cc1[N+](=O)[O-]
Second: O=C(/C=C/c1ccccc1O)c1ccccc1Cl
The TGI of the first is lower: 5.72 µM for the first, over 100 µM for the second.

`O=C(O)c1ccccc1NCn1c(=S)sc2ccccc21` and `COc1ccc(Br)c(C(=O)N2CCc3ccccc32)c1N` cannot be ordered by TGI: over 100 µM for the first, over 100 µM for the second.

First: Cc1cc(C)nc(NS(=O)(=O)c2ccc(Nc3c4ccccc4nc4c(C(=O)NCCN(C)C)cccc34)cc2)n1
Second: CCCCC1(C(NC(=O)c2ccccc2Cl)c2ccncc2)C(=O)N(c2ccccc2)N(c2ccccc2)C1=O (stereo not drawn)
The TGI of the first is lower: 19.3 µM for the first, over 100 µM for the second.

`COc1cc2c3c(n(CCCNCCCNCCCN)c(=O)c2cc1OC)-c1cc2c(cc1C3=O)OCO2` and `CN1CCc2ccccc2C(C(=O)c2ccc3c(c2)OCO3)C1=O` (stereo not drawn) cannot be ordered by TGI: over 100 µM for the first, over 100 µM for the second.

`COc1cc2c(c(OC)c1OC)C(=O)NCCC2` and `COc1ccc(C2Cc3cc(OC)c(OC)c(OC)c3C2)cc1` (stereo not drawn) cannot be ordered by TGI: over 100 µM for the first, over 100 µM for the second.

`O=C1CCC(=O)N1Sc1ccccc1` and `Cc1ccc(S(=O)C(C)C(Cl)c2ccccc2)cc1` (stereo not drawn) cannot be ordered by TGI: over 100 µM for the first, over 100 µM for the second.

Going from `COc1ccc(/C=N/NS(=O)(=O)c2ccccc2)cc1` to `O=C1C(=O)C2(CC1S(=O)(=O)c1ccccc1)c1ccccc1-c1ccccc12` (stereo not drawn), the TGI falls from over 100 µM to 34.6 µM.

Going from `O=CN1N=C(c2cccc(Nc3ccnc4cc(Cl)ccc34)c2)CC1c1ccc(Cl)cc1` (stereo not drawn) to `Cc1cc(Cl)ccc1NC(=O)C1C(=O)N(c2ccc(Cl)cc2C)C(=O)/C1=N\NC(N)=S` (stereo not drawn), the TGI falls from over 100 µM to 34.4 µM.

`O=c1oc2c3ccc4ccccc4c3n(CCN3CCCCC3)c2c2ccccc12` and `CC(=O)Oc1cc2cnc3c4cc(OC(C)=O)c(OC(C)=O)cc4ccc3c2cc1OC(C)=O` cannot be ordered by TGI: over 100 µM for the first, over 100 µM for the second.

Compared with `OCC(O)C(O)C(O)c1nn(-c2ccc(F)cc2)c2nc3cc(Cl)c(Cl)cc3nc12` (stereo not drawn), `C=C1C[C@@H]2O[C@H]3[C@H]4[C@@H](CC[C@@](C)(OC(=O)CCC)[C@H]42)[C@@H](C)C(=O)O[C@@]3(C)CC[C@H]1OO` is lower in TGI: over 100 µM for the first, 29.7 µM for the second.

For `CCCCCCCCCCCCCCCC[n+]1ccccc1`, the GI50 was 1.1 µM and 1.09 µM.

For `CCCCCCCCCCCCCCCC[n+]1ccccc1`, the TGI was 2.64 µM and 3.61 µM.

System: PC-3 prostate
Test: NCI anticancer screen, dose series, 48 h

`COc1cc(N(C)C)c(OC)cc1C=C1C=CC=C1` and `CC(=O)Oc1cc2cnc3c4cc(OC(C)=O)c(OC(C)=O)cc4ccc3c2cc1OC(C)=O` cannot be ordered by TGI: over 100 µM for the first, over 100 µM for the second.

Going from `C=C1CC[C@H]2C(C)=CC[C@H]3C(=C)C(=O)O[C@@H]3[C@@H]12` to `O=[N+]([O-])/C=C/c1ccc(Cl)cc1[N+](=O)[O-]`, the TGI falls from over 100 µM to 8.34 µM.

Compound `O=C(O)c1ccccc1NCn1c(=S)sc2ccccc21` has a TGI of over 100 µM.

`O=[N+]([O-])/C=C/c1ccc(Cl)cc1[N+](=O)[O-]` and `CC(=O)Oc1cc2cnc3c4cc(OC(C)=O)c(OC(C)=O)cc4ccc3c2cc1OC(C)=O` are within 1.5-fold of each other in GI50: 2.54 µM for the first, 3.27 µM for the second.

`CCCCCCCCCCCCCCCC[n+]1ccccc1` was tested, and the GI50 was 0.243 µM and 0.244 µM.

In the case of `CCCCCCCCCCCCCCCC[n+]1ccccc1`, the TGI is reported as 0.846 µM and 0.692 µM.

System: OVCAR-5 ovarian
Test: NCI anticancer screen, dose series, 48 h

Going from `CC1(C)OC(=O)C(=C2CCC(C(=O)Nc3cccc(C(F)(F)F)c3)N2)C(=O)O1` (stereo not drawn) to `Cc1cc(Cl)ccc1NC(=O)C1C(=O)N(c2ccc(Cl)cc2C)C(=O)/C1=N\NC(N)=S` (stereo not drawn), the TGI falls from over 100 µM to 53.9 µM.

`CN(C)CCN1CCc2c([nH]c3ccccc23)C1c1cccnc1` (stereo not drawn) and `C1=CC2CCC1CN2CCC1CNc2ccccc21` (stereo not drawn) cannot be ordered by TGI: over 100 µM for the first, over 100 µM for the second.

First: CN(C)c1ccc(C(O)C2=CC(=O)c3ccccc3C2=O)cc1 (stereo not drawn)
Second: Cc1ccc2ccc(-c3ccccc3)c3c2c1C(=O)c1ccccc1C3=O
The TGI of the first is lower: 52.4 µM for the first, over 100 µM for the second.

`CCN(c1ccccc1)[C@H]1C(=O)N(c2ccc([N+](=O)[O-])cc2)[C@H]1c1ccc(OC)cc1` and `COc1ccc(/C=N/NS(=O)(=O)c2ccccc2)cc1` cannot be ordered by TGI: over 100 µM for the first, over 100 µM for the second.

Compared with `COc1ccc(/C=C\c2cc(OC)c(OC)c(OC)c2)cc1`, `COc1ccc(C2Cc3cc(OC)c(OC)c(OC)c3C2)cc1` (stereo not drawn) is higher in TGI: 90.8 µM for the first, over 100 µM for the second.

`COc1cc(N(C)C)c(OC)cc1C=C1C=CC=C1` and `COc1cc2c(c(OC)c1OC)C(=O)NCCC2` cannot be ordered by TGI: over 100 µM for the first, over 100 µM for the second.

`C[C@H]1CC[P+](C)(c2ccccc2)C1` (stereo partly drawn) and `Cc1ccc(S(=O)C(C)C(Cl)c2ccccc2)cc1` (stereo not drawn) cannot be ordered by TGI: over 100 µM for the first, over 100 µM for the second.

`C=C1CC[C@H]2C(C)=CC[C@H]3C(=C)C(=O)O[C@@H]3[C@@H]12` and `C=C1C[C@@H]2O[C@H]3[C@H]4[C@@H](CC[C@@](C)(OC(=O)CCC)[C@H]42)[C@@H](C)C(=O)O[C@@]3(C)CC[C@H]1OO` cannot be ordered by TGI: over 100 µM for the first, over 100 µM for the second.

`COc1cccc(/C=N\NC(=O)C(C)SC(C)C(=O)N/N=C/c2cccc(OC)c2)c1` (stereo not drawn) and `O=C(/C=C/c1ccccc1O)c1ccccc1Cl` cannot be ordered by TGI: over 100 µM for the first, over 100 µM for the second.

Compared with `O=[N+]([O-])/C=C/c1ccc(Cl)cc1[N+](=O)[O-]`, `O=CN1N=C(c2cccc(Nc3ccnc4cc(Cl)ccc34)c2)CC1c1ccc(Cl)cc1` (stereo not drawn) is higher in TGI: 14.9 µM for the first, over 100 µM for the second.

`O=C(O)c1ccccc1NCn1c(=S)sc2ccccc21` and `COc1ccc(Br)c(C(=O)N2CCc3ccccc32)c1N` cannot be ordered by TGI: over 100 µM for the first, over 100 µM for the second.

First: Cc1cc(C)nc(NS(=O)(=O)c2ccc(Nc3c4ccccc4nc4c(C(=O)NCCN(C)C)cccc34)cc2)n1
Second: CCCCC1(C(NC(=O)c2ccccc2Cl)c2ccncc2)C(=O)N(c2ccccc2)N(c2ccccc2)C1=O (stereo not drawn)
The TGI of the first is lower: 29.4 µM for the first, over 100 µM for the second.

Compared with `O=C1C(=O)C2(CC1S(=O)(=O)c1ccccc1)c1ccccc1-c1ccccc12` (stereo not drawn), `O=c1oc2c3ccc4ccccc4c3n(CCN3CCCCC3)c2c2ccccc12` is higher in TGI: 46.5 µM for the first, over 100 µM for the second.

`CC(=O)Oc1cc2cnc3c4cc(OC(C)=O)c(OC(C)=O)cc4ccc3c2cc1OC(C)=O` and `OCC(O)C(O)C(O)c1nn(-c2ccc(F)cc2)c2nc3cc(Cl)c(Cl)cc3nc12` (stereo not drawn) cannot be ordered by TGI: over 100 µM for the first, over 100 µM for the second.

First: CN(C)c1ccc(C(O)C2=CC(=O)c3ccccc3C2=O)cc1 (stereo not drawn)
Second: O=CN1N=C(c2cccc(Nc3ccnc4cc(Cl)ccc34)c2)CC1c1ccc(Cl)cc1 (stereo not drawn)
The GI50 of the first is lower: 22.4 µM for the first, over 100 µM for the second.

`O=[N+]([O-])/C=C/c1ccc(Cl)cc1[N+](=O)[O-]` and `CC(=O)Oc1cc2cnc3c4cc(OC(C)=O)c(OC(C)=O)cc4ccc3c2cc1OC(C)=O` are within 1.5-fold of each other in GI50: 4.49 µM for the first, 3.93 µM for the second.

With `C=C1C[C@@H]2O[C@H]3[C@H]4[C@@H](CC[C@@](C)(OC(=O)CCC)[C@H]42)[C@@H](C)C(=O)O[C@@]3(C)CC[C@H]1OO` the GI50 was over 100 µM.

In the case of `CCCCCCCCCCCCCCCC[n+]1ccccc1`, the GI50 is reported as 0.494 µM and 0.842 µM.

With `CCCCCCCCCCCCCCCC[n+]1ccccc1` the TGI was 1.86 µM and 2.93 µM.

System: KM12 colon
Test: NCI anticancer screen, dose series, 48 h

First: CC1(C)OC(=O)C(=C2CCC(C(=O)Nc3cccc(C(F)(F)F)c3)N2)C(=O)O1 (stereo not drawn)
Second: CN(C)c1ccc(C(O)C2=CC(=O)c3ccccc3C2=O)cc1 (stereo not drawn)
The TGI of the first is higher: over 100 µM for the first, 91.4 µM for the second.

`CN(C)CCN1CCc2c([nH]c3ccccc23)C1c1cccnc1` (stereo not drawn) and `CCN(c1ccccc1)[C@H]1C(=O)N(c2ccc([N+](=O)[O-])cc2)[C@H]1c1ccc(OC)cc1` cannot be ordered by TGI: over 100 µM for the first, over 100 µM for the second.

`COc1ccc(/C=C\c2cc(OC)c(OC)c(OC)c2)cc1` and `COc1cc(N(C)C)c(OC)cc1C=C1C=CC=C1` cannot be ordered by TGI: over 100 µM for the first, over 100 µM for the second.

Work on `CN(C)c1ccc(C(O)C2=CC(=O)c3ccccc3C2=O)cc1` (stereo not drawn) yielded a GI50 of 13.7 µM.
